Experimental data from BindingDB's records for doi:10.1021/jm100157m (University of Arizona, 2010).

Assay: Agonist activity at mu opioid receptor in guinea pig ileum assessed as inhibition of electrically-stimulated muscle contraction

`CSCC[C@H](NC(=O)[C@H](Cc1ccccc1)NC(=O)CNC(=O)[C@@H](C)NC(=O)[C@@H](N)Cc1ccc(O)cc1)C(=O)N1CCC[C@H]1C(=O)N[C@@H](CC(C)C)C(=O)N[C@@H](Cc1c[nH]c2ccccc12)C(=O)NCc1cc(C(F)(F)F)cc(C(F)(F)F)c1` [Tyr-D-Ala-Gly-Phe-Met-Pro-Leu-Trp-NH-3,5-Bzl(CF 3) 2] showed an IC50 of 420 nM.
